Assay results taken from ChEMBL document CHEMBL6109124, “Identification of effective anti-osteosarcoma agents via screening of an in-house NQO1-targeted compound library” (Bioorg Med Chem, 2025).
pIC50: −log10 of the molar value.

Legend:
[1] = Cytotoxicity against HUVEC assessed as cell growth inhibition measured after 72 hrs by MTT assay; type: toxicity, cell-based; conditions: human, HUVEC cells
[2] = Selectivity index, ratio of IC50 for cytotoxicity against HUVEC to IC50 for cytotoxicity against human MNNG cells; type: toxicity, cell-based; conditions: HUVEC and human MNNG cells, read-out: Ratio IC50
[3] = Toxicity in human MNNG cell xenografted Balb/c mouse assessed as reduction in AST level at 30 mg/kg, iv administered every 2 days for 3 weeks and measured post last dose; type: organism-based; conditions: in vivo, 504 h, time 21 day
HOS-TE85 [4] = assay: Antitumor activity against human MNNG cells xenografted in Balb/c mouse assessed as tumor growth inhibition at 30 mg/kg, iv administered every 2 days for 3 weeks and measured daily during compound dosing relative to control; type: functional; conditions: HOS-TE85, 504 h, time 21 day, read-out: TGI
HOS-TE85 [5] = assay: Cytotoxicity against human MNNG cells assessed as cell growth inhibition measured after 72 hrs by MTT assay; type: functional, cell-based; conditions: HOS-TE85, 72 h
[6] = Toxicity in human MNNG cell xenografted Balb/c mouse assessed as reduction in Cr level at 30 mg/kg, iv administered every 2 days for 3 weeks and measured post last dose; type: organism-based; conditions: in vivo, 504 h, time 21 day
[7] = Toxicity in human MNNG cell xenografted Balb/c mouse assessed as body weight loss at 30 mg/kg, iv administered every 2 days for 3 weeks and measured every other day during compound dosing; type: organism-based; conditions: in vivo, 504 h, time 21 day

## CC1(C)CCC2=C(O1)c1ccccc1C(=O)C2=O [LAPACHONE]
[1]
  IC50 at 72 h: 12.5 µM
[2]
  selectivity ratio: 5.16
[3]
  Activity: Toxic
HOS-TE85 [4]
  inhibition in vivo at 30 mg/kg: 58.9%
HOS-TE85 [5]
  pIC50: 5.62
[6]
  Activity: Toxic
[7]
  Activity: Non-toxic
